According to the supplement of paper PMC10307832:

Legend:
Test in all cases: relative viability (nuclei count vs DMSO), 5 days (fraction); higher = more cells survive
Ponatinib + Tozasertib = compound: Cc1ccc(C(=O)Nc2ccc(CN3CCN(C)CC3)c(C(F)(F)F)c2)cc1C#Cc1cnc2cccnn12 [Ponatinib] + Cc1cc(Nc2cc(N3CCN(C)CC3)nc(Sc3ccc(NC(=O)C4CC4)cc3)n2)n[nH]1 [Tozasertib] (partner 0.1 µM)
Outline: (§1)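 Lung cancer cell lines in 1536-well plates were dosed by pin tool the day after seeding, either with one drug alone or with a fixed anchor-drug dose plus five library-drug doses (not always all listed) in √10 steps. After 5 days, cells were fixed and their nuclei stained in one step (final 0.05% Triton X-100, 1% formaldehyde, 1 ug/ml Hoechst), then counted on 4× images. Relative viability is the nuclei count in treated wells divided by that in vehicle wells. Values are medians of duplicate plates.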

Pazopanib + Navitoclax = compound: Cc1ccc(Nc2nccc(N(C)c3ccc4c(C)n(C)nc4c3)n2)cc1S(N)(=O)=O [Pazopanib] + CC1(C)CCC(c2ccc(Cl)cc2)=C(CN2CCN(c3ccc(C(=O)NS(=O)(=O)c4ccc(N[C@H](CCN5CCOCC5)CSc5ccccc5)c(S(=O)(=O)C(F)(F)F)c4)cc3)CC2)C1 [Navitoclax] (partner 0.5 µM)
Outline: as §1

Pazopanib + Crizotinib = compound: Cc1ccc(Nc2nccc(N(C)c3ccc4c(C)n(C)nc4c3)n2)cc1S(N)(=O)=O [Pazopanib] + C[C@@H](Oc1cc(-c2cnn(C3CCNCC3)c2)cnc1N)c1c(Cl)ccc(F)c1Cl [Crizotinib] (partner 1 µM)
Outline: as §1

Pazopanib + Pemetrexed = compound: Cc1ccc(Nc2nccc(N(C)c3ccc4c(C)n(C)nc4c3)n2)cc1S(N)(=O)=O [Pazopanib] + Nc1nc2[nH]cc(CCc3ccc(C(=O)N[C@@H](CCC(=O)O)C(=O)O)cc3)c2c(=O)[nH]1 [Pemetrexed] (partner 0.2 µM)
Outline: as §1

Cell Line	relative viability (Ponatinib + Tozasertib; first compound 0.002 µM)	relative viability (Ponatinib + Tozasertib; first compound 0.006325 µM)	relative viability (Ponatinib + Tozasertib; first compound 0.06325 µM)	relative viability (Ponatinib + Tozasertib; first compound 0.2 µM)	relative viability (Pazopanib + Navitoclax; first compound 0.01 µM)	relative viability (Pazopanib + Navitoclax; first compound 0.03162 µM)	relative viability (Pazopanib + Navitoclax; first compound 0.1 µM)	relative viability (Pazopanib + Navitoclax; first compound 0.3162 µM)	relative viability (Pazopanib + Navitoclax; first compound 1 µM)	relative viability (Pazopanib + Crizotinib; first compound 0.01 µM)	relative viability (Pazopanib + Crizotinib; first compound 0.03162 µM)	relative viability (Pazopanib + Crizotinib; first compound 0.1 µM)	relative viability (Pazopanib + Crizotinib; first compound 0.3162 µM)	relative viability (Pazopanib + Crizotinib; first compound 1 µM)	relative viability (Pazopanib + Pemetrexed; first compound 0.03162 µM)	relative viability (Pazopanib + Pemetrexed; first compound 0.1 µM)	relative viability (Pazopanib + Pemetrexed; first compound 0.3162 µM)	relative viability (Pazopanib + Pemetrexed; first compound 1 µM)	relative viability (Pazopanib + Pemetrexed; first compound 0.01 µM)
PC-3 [JPC-3]	0.851	0.822	0.951	0.824	0.762	0.794	0.904	0.723	0.793	1.03	1.01	1.02	0.925	0.936	0.993	0.957	1.06	1.15	–
NCI-H1651	0.685	0.662	0.563	0.531	1.1	1.16	1.17	1.12	1.16	0.809	0.775	0.822	0.853	0.924	0.603	0.574	0.542	0.583	0.6
HARA	0.0958	0.111	0.0906	0.0762	1.2	1.03	1.13	1.15	1.2	1.1	1.04	1.22	1.05	1.1	0.244	0.242	0.207	0.237	0.245
NCI-H1650	0.323	0.411	0.348	0.304	1.28	1.26	1.44	1.18	1.04	1.09	1	1	0.857	0.965	0.376	0.364	0.403	0.369	0.34
NCI-H2347	0.473	0.669	0.417	0.51	0.722	0.805	0.836	0.842	0.858	0.885	0.643	0.662	0.691	0.842	0.421	0.429	0.426	0.386	0.444
LU99A	0.227	0.293	0.251	0.263	0.697	0.819	0.769	0.773	0.843	0.499	0.533	0.53	0.606	0.568	0.19	0.182	0.185	0.136	–
NCI-H1355	0.566	0.542	0.582	0.455	–	0.899	1.09	1.07	0.979	–	0.965	1.08	0.982	1.05	1.02	1.1	1.02	1.08	0.84
HCC-78	0.385	0.511	0.404	0.33	0.493	0.813	0.796	0.828	0.694	0.366	0.354	0.349	0.358	0.383	0.934	0.899	0.839	0.927	–
HCC-15	0.401	0.479	0.432	0.328	0.698	0.706	0.743	0.713	0.815	0.773	0.924	1.01	0.813	0.893	0.226	0.223	0.209	0.231	0.215
EKVX	0.386	0.45	0.375	0.314	0.834	0.926	0.97	0.921	1.02	0.841	1.07	0.898	0.916	0.891	0.403	0.377	0.35	0.361	0.37
NCI-H2087	0.259	0.237	0.21	0.155	1.03	1.04	1.1	1.01	0.8	0.952	0.76	1.01	0.812	0.701	0.65	0.637	0.59	0.657	0.61
LK-2	–	0.174	0.188	0.209	0.67	0.925	0.863	0.788	0.821	0.224	0.239	0.213	0.21	0.235	0.243	0.256	0.346	0.201	0.218
NCI-H1437	0.363	0.419	0.411	0.393	1.11	1.06	1.07	0.985	1.08	0.936	0.935	0.953	0.807	1.05	0.333	0.328	0.296	0.321	0.327
COR-L23	0.209	0.213	0.171	0.142	0.971	1.08	0.985	0.978	1.06	0.635	0.645	0.663	0.704	0.64	0.182	0.207	0.204	0.203	0.177
PC-14	0.527	0.628	0.609	0.472	1.06	1.06	1.09	0.954	0.948	0.95	0.893	0.968	0.891	0.935	0.137	0.124	0.133	0.126	0.133
A-427	0.23	0.227	0.198	0.167	1.03	1.07	0.977	0.941	1.04	1.01	0.934	0.967	0.788	0.818	1.04	0.934	1.05	1.05	0.942
LCLC-97TM1	0.236	0.298	0.17	0.218	–	0.365	0.427	0.547	0.655	–	0.309	0.277	0.297	0.427	0.165	0.136	0.157	0.154	–
